Experimental findings from patent publication US7732431B2, “Pharmaceutical compositions comprising trimegestone” (aventis pharma SA, priority 1999, dated 2010) are described below.

The series is described as follows: Storage stability and light sensitivity of trimegestone in powder form. The format is physicochemical. The protocol: Trimegestone is thus a molecule which is in itself stable. However, stability problems can appear during the preparation of tablets or if conventional pharmaceutical compositions comprising trimegestone are stored at 40° C. (dry or damp medium) or under more severe conditions. In particular, the appearance of (20S)-17alpha-methyl-7beta-(1-hydroxy-2-oxo-propyl)-oestra-4,9-dien-3-one, the 21R epimer of trimegestone, or even of oxopromegestone is observed under these conditions.

`C[C@H](O)C(=O)[C@@]1(C)CC[C@H]2[C@@H]3CCC4=CC(=O)CCC4=C3CC[C@@]21C` [Trimegestone, (21S)-17alpha-methyl-17beta-(2-hydroxy-1-oxo-propyl)-oestra-4,9-dien-3-one]: the Sensitivity to light entry was “very low sensitivity to light”. Where the note is “3 months at 70° C. under an inert gas”, the Stability after storage entry is listed as “stable”. In addition, the Stability after storage result (6 months in a glass pill box at 50° C.) is given as “stable”.
